Assays:
Endothelin-1 receptor = target: T1, Endothelin-1 receptor (Homo sapiens, UniProt P25101)
T1 sequence (P25101 whole entry): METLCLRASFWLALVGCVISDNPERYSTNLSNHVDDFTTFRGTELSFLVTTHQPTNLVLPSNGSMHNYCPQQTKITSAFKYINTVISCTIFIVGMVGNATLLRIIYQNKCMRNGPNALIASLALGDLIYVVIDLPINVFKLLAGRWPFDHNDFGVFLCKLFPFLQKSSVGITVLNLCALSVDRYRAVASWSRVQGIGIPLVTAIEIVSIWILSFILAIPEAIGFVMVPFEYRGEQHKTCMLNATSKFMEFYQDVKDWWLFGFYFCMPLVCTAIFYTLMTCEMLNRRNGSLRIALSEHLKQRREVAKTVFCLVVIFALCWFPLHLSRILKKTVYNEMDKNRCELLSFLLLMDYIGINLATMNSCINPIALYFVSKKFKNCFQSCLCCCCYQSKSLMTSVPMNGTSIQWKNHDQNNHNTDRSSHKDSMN
Description: Inhibition of Human Endothelin A receptor expressed in CHO Cells.

Oryctolagus cuniculus = organism: Oryctolagus cuniculus; test: Inhibition of Endothelin-1 induced contractions in rabbit carotid artery rings.; type: functional
[1] = target: T2, Endothelin receptor type B (Homo sapiens, UniProt P24530); test: Inhibition of Human Endothelin B receptor expressed in CHO Cells.
T2 sequence (P24530 whole entry): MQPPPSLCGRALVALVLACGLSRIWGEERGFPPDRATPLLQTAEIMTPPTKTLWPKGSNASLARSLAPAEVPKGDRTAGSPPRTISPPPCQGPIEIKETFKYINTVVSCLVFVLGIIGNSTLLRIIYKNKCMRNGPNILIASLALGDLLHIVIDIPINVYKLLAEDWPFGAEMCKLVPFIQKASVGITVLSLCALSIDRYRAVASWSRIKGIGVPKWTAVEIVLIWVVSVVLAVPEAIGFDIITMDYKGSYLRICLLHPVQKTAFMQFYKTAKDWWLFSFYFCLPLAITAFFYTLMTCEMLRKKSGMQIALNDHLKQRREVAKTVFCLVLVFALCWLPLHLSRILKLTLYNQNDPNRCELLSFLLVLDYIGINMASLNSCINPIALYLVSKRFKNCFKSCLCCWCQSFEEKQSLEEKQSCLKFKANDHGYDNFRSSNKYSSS

SMILES	Ki (Endothelin-1 receptor)	Ki [1]	Kb (Oryctolagus cuniculus)
Cc1noc(NS(=O)(=O)c2ccccc2-c2ccc(Cc3ncco3)cc2)c1C	19 nM	34 µM	320 nM
Cc1nc(-c2ccc(-c3ccccc3S(=O)(=O)Nc3onc(C)c3C)cc2)oc1C	16 nM	12 µM	230 nM
Cc1noc(NS(=O)(=O)c2ccccc2-c2ccc(-c3cocn3)cc2)c1C	0.5 nM	20 µM	20 nM
Cc1noc(NS(=O)(=O)c2ccccc2-c2ccc(-c3nc4ccccc4o3)cc2)c1C	2000 nM	94 µM	–
Cc1noc(NS(=O)(=O)c2ccccc2-c2ccc(CC(C)C)cc2)c1C	18 nM	1.7 µM	210 nM
Cc1noc(NS(=O)(=O)c2ccccc2-c2ccc(CC(C)C)cc2N)c1C	4.7 nM	–	–
Cc1noc(NS(=O)(=O)c2ccccc2-c2ccc(-c3cnco3)cc2)c1C	3.7 nM	78 µM	58 nM

More lines, main results first:

Ki (Endothelin-1 receptor)	Ki [1]	SMILES	Kb (Oryctolagus cuniculus)
11 nM	12 µM	Cc1cnc(-c2ccc(-c3ccccc3S(=O)(=O)Nc3onc(C)c3C)cc2)o1	140 nM
70 nM	110 µM	Cc1nc(-c2ccc(-c3ccccc3S(=O)(=O)Nc3onc(C)c3C)cc2)co1	2500 nM
2 nM	100 µM	Cc1coc(-c2ccc(-c3ccccc3S(=O)(=O)Nc3onc(C)c3C)cc2)n1	18 nM
4.7 nM	94 µM	Cc1noc(NS(=O)(=O)c2ccccc2-c2ccc(-c3ncoc3C)cc2)c1C	47 nM
